{
  "source": "patent US6355799B1",
  "about": "“Substituted benzene compounds, process for their preparation, and herbicidal and defoliant compositions containing them” (ISK Americas Incorporated, priority 1997, dated 2002)",
  "type_in_all_cases": "in vivo",
  "key": {"[1]": {"system": "redroot pigweed (Amaranthus retroflexus, AMARE)", "experiment": "Post-emerge test, greenhouse herbicide activity screening", "conditions": "post-emerge, 14 days after application", "procedure,_shortened": "(§1)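 Compounds in acetone were track-sprayed at 15-1000 g ai/ha (187 l/ha) on sandy loam pots: pre-emerge one day after seeding, post-emerge at 2-3 leaf stage with 0.25% v/v non-ionic surfactant. Phytotoxicity was rated 14 days later on a 0 (no damage) to 100 (complete death) scale.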"}, "[2]": {"system": "green foxtail (Setaria viridis, SETVI)", "experiment": "Post-emerge test, greenhouse herbicide activity screening", "conditions": "post-emerge, 14 days after application, rating scale 0-100", "procedure,_shortened": "as §1"}, "[3]": {"system": "sicklepod (Cassia obtusifolia, CASOB)", "experiment": "Post-emerge test, greenhouse herbicide activity screening", "conditions": "post-emerge, 14 days after application, rating scale 0-100", "procedure,_shortened": "as §1"}, "[4]": {"system": "johnsongrass (Sorghum halepense, SORHA)", "experiment": "Post-emerge test, greenhouse herbicide activity screening", "conditions": "post-emerge, 14 days after application, rating scale 0-100", "procedure,_shortened": "as §1"}, "[5]": {"system": "barnyardgrass (Echinochloa crus-galli, ECHCG)", "experiment": "Post-emerge test, greenhouse herbicide activity screening", "conditions": "post-emerge, 14 days after application, rating scale 0-100", "procedure,_shortened": "as §1"}, "[6]": {"system": "large crabgrass (Digitaria sanguinalis, DIGSA)", "experiment": "Post-emerge test, greenhouse herbicide activity screening", "conditions": "post-emerge, 14 days after application, rating scale 0-100", "procedure,_shortened": "as §1"}, "[7]": {"system": "lambsquarters (Chenopodium album, CHEAL)", "experiment": "Post-emerge test, greenhouse herbicide activity screening", "conditions": "post-emerge, 14 days after application, rating scale 0-100", "procedure,_shortened": "as §1"}, "[8]": {"system": "ivyleaf morningglory (Ipomoea hederacea, IPOHE)", "experiment": "Post-emerge test, greenhouse herbicide activity screening", "conditions": "post-emerge, 14 days after application, rating scale 0-100", "procedure,_shortened": "as §1"}, "[9]": {"system": "velvetleaf (Abutilon theophrasti, ABUTH)", "experiment": "Post-emerge test, greenhouse herbicide activity screening", "conditions": "post-emerge, 14 days after application, rating scale 0-100", "procedure,_shortened": "as §1"}, "[10]": {"system": "redroot pigweed (Amaranthus retroflexus, AMARE)", "experiment": "Pre-emerge test, greenhouse herbicide activity screening", "conditions": "phytotoxicity rating 0-100, 14 days after application", "procedure,_shortened": "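Sandy loam pots; pre-emerge: sown 1 d pre-spray, surface-watered after, then bottom-watered. Post-emerge: sown 8–21 d before, 2–3 leaf stage, + 0.25% v/v NIS, bottom-watered. Acetone, 187 l/ha track spray, 15–1000 g ai/ha. 0–100 injury score, day 14.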"}, "[11]": {"system": "green foxtail (Setaria viridis, SETVI)", "experiment": "Pre-emerge test, greenhouse herbicide activity screening", "conditions": "phytotoxicity rating 0-100, 14 days after application", "procedure,_shortened": "(§2)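 Plants grown in 10 cm pots of sandy loam mix received acetone-dissolved compounds through a moving flat-fan nozzle. Doses ranged from 15 to 1000 g ai/ha. Pre-emerge pots were seeded one day earlier, post-emerge pots 8–21 days earlier. Fourteen days on, each pot was graded 0–100 for damage.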"}, "[12]": {"system": "sicklepod (Cassia obtusifolia, CASOB)", "experiment": "Pre-emerge test, greenhouse herbicide activity screening", "conditions": "phytotoxicity rating 0-100, 14 days after application", "procedure,_shortened": "as §2"}, "[13]": {"system": "johnsongrass (Sorghum halepense, SORHA)", "experiment": "Pre-emerge test, greenhouse herbicide activity screening", "conditions": "phytotoxicity rating 0-100, 14 days after application", "procedure,_shortened": "as §2"}, "[14]": {"system": "barnyardgrass (Echinochloa crus-galli, ECHCG)", "experiment": "Pre-emerge test, greenhouse herbicide activity screening", "conditions": "phytotoxicity rating 0-100, 14 days after application", "procedure,_shortened": "as §2"}, "[15]": {"system": "large crabgrass (Digitaria sanguinalis, DIGSA)", "experiment": "Pre-emerge test, greenhouse herbicide activity screening", "conditions": "phytotoxicity rating 0-100, 14 days after application", "procedure,_shortened": "as §2"}, "[16]": {"system": "lambsquarters (Chenopodium album, CHEAL)", "experiment": "Pre-emerge test, greenhouse herbicide activity screening", "conditions": "phytotoxicity rating 0-100, 14 days after application", "procedure,_shortened": "as §2"}, "[17]": {"system": "ivyleaf morningglory (Ipomoea hederacea, IPOHE)", "experiment": "Pre-emerge test, greenhouse herbicide activity screening", "conditions": "phytotoxicity rating 0-100, 14 days after application", "procedure,_shortened": "as §2"}, "[18]": {"system": "velvetleaf (Abutilon theophrasti, ABUTH)", "experiment": "Pre-emerge test, greenhouse herbicide activity screening", "conditions": "phytotoxicity rating 0-100, 14 days after application", "procedure,_shortened": "as §2"}, "[19]": {"system": "upland rice (Oryza sp., var. Tebonnet, RICE)", "experiment": "Post-emerge test, crop safety", "conditions": "post-emerge, 14 days after application, rating scale 0-100", "procedure,_shortened": "(§3)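 Each test used a mechanized track sprayer delivering 187 l/ha of acetone solution at 15–1000 g ai/ha. Post-emerge foliage at 2–3 leaves was treated with added 0.25% v/v non-ionic surfactant and bottom-watered only. Injury was assessed on day 14, where 100 means total kill.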"}, "[20]": {"system": "field corn (Zea mays L., var. Dekalb 535, CORN)", "experiment": "Post-emerge test, crop safety", "conditions": "post-emerge, 14 days after application, rating scale 0-100", "procedure,_shortened": "as §3"}, "[21]": {"system": "upland rice (Oryza sp., var. Tebonnet, RICE)", "experiment": "Pre-emerge test, crop safety", "conditions": "crop damage rating 0-100, 14 days after application", "procedure,_shortened": "as §1"}, "[22]": {"system": "field corn (Zea mays L., var. Dekalb 535, CORN)", "experiment": "Pre-emerge test, crop safety", "conditions": "crop damage rating 0-100, 14 days after application", "procedure,_shortened": "as §1"}},
  "data": [
    {"smiles": "COc1c(Cl)cc(F)c(-n2c(=O)cc(C(F)(F)F)n(C)c2=O)c1NC(=O)OCc1c(F)cccc1F", "note": "[4-29]", "values": [
      {"measurement": "phytotoxicity rating AMARE", "setting": "[1]; 63 g ai/ha, rating scale 0-100 (0 no damage, 100 complete death)", "result": 100},
      {"measurement": "phytotoxicity rating AMARE", "setting": "[1]; 250 g ai/ha, rating scale 0-100", "result": 100},
      {"measurement": "phytotoxicity rating SETVI", "setting": "[2]; 63 g ai/ha", "result": 80},
      {"measurement": "phytotoxicity rating SETVI", "setting": "[2]; 250 g ai/ha", "result": 99},
      {"measurement": "phytotoxicity rating CASOB", "setting": "[3]; 63 g ai/ha", "result": 90},
      {"measurement": "phytotoxicity rating CASOB", "setting": "[3]; 250 g ai/ha", "result": 100},
      {"measurement": "phytotoxicity rating SORHA", "setting": "[4]; 63 g ai/ha", "result": 60},
      {"measurement": "phytotoxicity rating SORHA", "setting": "[4]; 250 g ai/ha", "result": 100},
      {"measurement": "phytotoxicity rating ECHCG", "setting": "[5]; 63 g ai/ha", "result": 70},
      {"measurement": "phytotoxicity rating ECHCG", "setting": "[5]; 250 g ai/ha", "result": 90},
      {"measurement": "phytotoxicity rating DIGSA", "setting": "[6]; 63 g ai/ha", "result": 50},
      {"measurement": "phytotoxicity rating DIGSA", "setting": "[6]; 250 g ai/ha", "result": 90},
      {"measurement": "phytotoxicity rating CHEAL", "setting": "[7]; 63 g ai/ha", "result": 90},
      {"measurement": "phytotoxicity rating CHEAL", "setting": "[7]; 250 g ai/ha", "result": 100},
      {"measurement": "phytotoxicity rating IPOHE", "setting": "[8]; 63 g ai/ha", "result": 100},
      {"measurement": "phytotoxicity rating IPOHE", "setting": "[8]; 250 g ai/ha", "result": 100},
      {"measurement": "phytotoxicity rating ABUTH", "setting": "[9]; 63 g ai/ha", "result": 100},
      {"measurement": "phytotoxicity rating ABUTH", "setting": "[9]; 250 g ai/ha", "result": 100},
      {"measurement": "Pre-emerge Herbicidal Activity AMARE", "setting": "[10]; 63 g ai/ha", "result": 100},
      {"measurement": "Pre-emerge Herbicidal Activity AMARE", "setting": "[10]; 250 g ai/ha", "result": 100},
      {"measurement": "Pre-emerge Herbicidal Activity SETVI", "setting": "[11]; 63 g ai/ha", "result": 100},
      {"measurement": "Pre-emerge Herbicidal Activity SETVI", "setting": "[11]; 250 g ai/ha", "result": 100},
      {"measurement": "Pre-emerge Herbicidal Activity CASOB", "setting": "[12]; 63 g ai/ha", "result": 40},
      {"measurement": "Pre-emerge Herbicidal Activity CASOB", "setting": "[12]; 250 g ai/ha", "result": 80},
      {"measurement": "Pre-emerge Herbicidal Activity SORHA", "setting": "[13]; 63 g ai/ha", "result": 70},
      {"measurement": "Pre-emerge Herbicidal Activity SORHA", "setting": "[13]; 250 g ai/ha", "result": 90},
      {"measurement": "Pre-emerge Herbicidal Activity ECHCG", "setting": "[14]; 63 g ai/ha", "result": 70},
      {"measurement": "Pre-emerge Herbicidal Activity ECHCG", "setting": "[14]; 250 g ai/ha", "result": 90},
      {"measurement": "Pre-emerge Herbicidal Activity DIGSA", "setting": "[15]; 63 g ai/ha", "result": 100},
      {"measurement": "Pre-emerge Herbicidal Activity DIGSA", "setting": "[15]; 250 g ai/ha", "result": 100},
      {"measurement": "Pre-emerge Herbicidal Activity CHEAL", "setting": "[16]; 63 g ai/ha", "result": 100},
      {"measurement": "Pre-emerge Herbicidal Activity CHEAL", "setting": "[16]; 250 g ai/ha", "result": 100},
      {"measurement": "Pre-emerge Herbicidal Activity IPOHE", "setting": "[17]; 63 g ai/ha", "result": 70},
      {"measurement": "Pre-emerge Herbicidal Activity IPOHE", "setting": "[17]; 250 g ai/ha", "result": 90},
      {"measurement": "Pre-emerge Herbicidal Activity ABUTH", "setting": "[18]; 63 g ai/ha", "result": 100},
      {"measurement": "Pre-emerge Herbicidal Activity ABUTH", "setting": "[18]; 250 g ai/ha", "result": 100},
      {"measurement": "phytotoxicity rating RICE (crop damage)", "setting": "[19]; 63 g ai/ha", "result": 60},
      {"measurement": "phytotoxicity rating RICE (crop damage)", "setting": "[19]; 250 g ai/ha", "result": 85},
      {"measurement": "phytotoxicity rating CORN (crop damage)", "setting": "[20]; 63 g ai/ha", "result": 80},
      {"measurement": "phytotoxicity rating CORN (crop damage)", "setting": "[20]; 250 g ai/ha", "result": 100},
      {"measurement": "Pre-emerge Herbicidal Activity RICE", "setting": "[21]; 63 g ai/ha", "result": 50},
      {"measurement": "Pre-emerge Herbicidal Activity RICE", "setting": "[21]; 250 g ai/ha", "result": 85},
      {"measurement": "Pre-emerge Herbicidal Activity CORN", "setting": "[22]; 63 g ai/ha", "result": 80},
      {"measurement": "Pre-emerge Herbicidal Activity CORN", "setting": "[22]; 250 g ai/ha", "result": 95}
    ]}
  ]
}
